Data taken from US20230265151A1, “GIP/GLP1 CO-AGONIST COMPOUNDS” (priority 2020, published 2023).
Where two headings read alike, the source gives them in different places. *1 amine or outer side, *2 acyl side, *3 side chain or, on linkers, in order; H or OH if unused. Where a SMILES comes first, the peptide text is derived from it. Side-chain parts run from the residue outwards. [ ]: non-standard residue; d: D form. The star is where a group is joined. Decanoyl(10-(4-HOOC-PhO)) = O=C(O)c1ccc(OCCCCCCCCCC(=O)*)cc1; αMePhe(2-F) = C[C@](N)(Cc1ccccc1F)C(=O)O; γGlu = O=C(O)[C@H](CCC(=O)[*:2])N[*:1]; αMeY = C[C@](N)(Cc1ccc(O)cc1)C(=O)O; αMeL = CC(C)C[C@](C)(N)C(=O)O; Orn = NCCC[C@H](N)C(=O)O; AEEA = NCCOCCOCC(=O)O; Aib = CC(C)(N)C(=O)O

How the values were obtained:
Assay type in all cases: cell-based
hGIPR = molecular target: T1, hGIPR (Homo sapiens, UniProt P48546); experiment: Functional cAMP formation (HTRF) in HEK-293 clonal cells expressing hGIPR, 0.1% bovine casein, without or with 1.0% human serum albumin; conditions: for Emax: percent of maximal response to GIP(1-42)NH2; for EC50: hGIPR EC50, nM (SEM, n), 37° C., geometric mean
T1 construct: expressed in transfected cells
T1 sequence (P48546 22-466): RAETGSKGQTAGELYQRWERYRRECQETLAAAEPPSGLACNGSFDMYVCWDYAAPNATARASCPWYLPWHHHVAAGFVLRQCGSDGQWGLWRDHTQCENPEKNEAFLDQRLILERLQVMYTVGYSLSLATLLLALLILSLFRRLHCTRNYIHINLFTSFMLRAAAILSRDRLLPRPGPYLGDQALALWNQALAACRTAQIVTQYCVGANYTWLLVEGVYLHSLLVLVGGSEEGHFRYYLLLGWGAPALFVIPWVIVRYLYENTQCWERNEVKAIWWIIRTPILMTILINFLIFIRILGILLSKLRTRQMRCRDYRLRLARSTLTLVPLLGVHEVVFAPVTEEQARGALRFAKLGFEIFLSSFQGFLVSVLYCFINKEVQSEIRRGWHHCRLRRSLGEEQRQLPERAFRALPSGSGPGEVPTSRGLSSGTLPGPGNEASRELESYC
Summary of the method: (§1)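 Readings of the HTRF 665/620 nm ratio, which falls as cAMP rises, were converted to nM cAMP using a standard curve after 30 min peptide exposure at 37° C.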

hGCGR = molecular target: T2, hGCGR (Homo sapiens, UniProt P47871); experiment: Functional cAMP formation (HTRF) in HEK-293 clonal cells expressing hGCGR, 0.1% bovine casein, without or with 1.0% human serum albumin; conditions: hGCGR EC50, nM (SEM, n), 37° C., geometric mean
T2 construct: expressed in transfected cells
T2 sequence (P47871 26-477): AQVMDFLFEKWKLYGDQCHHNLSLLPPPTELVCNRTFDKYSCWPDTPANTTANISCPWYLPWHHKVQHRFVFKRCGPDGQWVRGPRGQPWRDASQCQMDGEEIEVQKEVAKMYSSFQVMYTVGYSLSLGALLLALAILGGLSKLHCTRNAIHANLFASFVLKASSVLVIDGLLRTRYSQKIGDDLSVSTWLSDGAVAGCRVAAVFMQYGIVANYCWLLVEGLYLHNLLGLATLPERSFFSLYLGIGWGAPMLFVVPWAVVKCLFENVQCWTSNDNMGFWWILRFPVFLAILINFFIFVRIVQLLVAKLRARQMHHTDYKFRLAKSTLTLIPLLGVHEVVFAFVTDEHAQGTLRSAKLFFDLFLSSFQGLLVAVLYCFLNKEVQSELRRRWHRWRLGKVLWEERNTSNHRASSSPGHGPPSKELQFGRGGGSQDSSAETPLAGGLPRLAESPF
Summary of the method: as §1

hGLP-1R = hGLP-1R (Homo sapiens, UniProt P43220); experiment: Functional cAMP formation (HTRF) in HEK-293 clonal cells expressing hGLP-1R, 0.1% bovine casein, without or with 1.0% human serum albumin; parameters: expressed in transfected cells; conditions: for Emax: percent of maximal response to GLP-1(7-36)NH2; for EC50: hGLP-1R EC50, nM (SEM, n), 37° C., geometric mean
Sequence of hGLP-1R (P43220 24-463): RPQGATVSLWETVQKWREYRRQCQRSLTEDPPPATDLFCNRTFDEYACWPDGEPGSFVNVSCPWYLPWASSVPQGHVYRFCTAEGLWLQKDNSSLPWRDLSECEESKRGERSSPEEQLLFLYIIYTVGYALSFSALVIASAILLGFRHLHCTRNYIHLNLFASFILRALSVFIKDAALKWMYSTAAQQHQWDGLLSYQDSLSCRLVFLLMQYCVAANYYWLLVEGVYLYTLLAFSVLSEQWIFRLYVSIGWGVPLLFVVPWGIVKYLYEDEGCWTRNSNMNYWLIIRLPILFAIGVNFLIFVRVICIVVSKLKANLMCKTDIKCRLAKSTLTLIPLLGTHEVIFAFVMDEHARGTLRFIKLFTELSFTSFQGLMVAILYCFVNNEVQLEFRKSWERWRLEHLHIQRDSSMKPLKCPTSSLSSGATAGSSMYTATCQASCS
Summary of the method: as §1

[1] = HEK293, read-out: hGIPR Emax, % ± SEM, 0.1% bovine casein and 1.0% human serum albumin, 37° C.
[2] = cAMP, 0.1% bovine casein (no human serum albumin)
[3] = 0.1% bovine casein and 1.0% human serum albumin
[4] = HEK293, read-out: hGLP-1R Emax, % ± SEM, 0.1% bovine casein and 1.0% human serum albumin, 37° C.
[5] = HEK293, read-out: hGLP-1R Emax, % ± SEM, cAMP, 37° C., 0.1% bovine casein, arithmetic mean

| SMILES | Emax (hGIPR; [1]) [%] | EC50 (hGIPR; [2]) [nM] | EC50 (hGCGR; [3]) [nM] | EC50 (hGCGR; [2]) [nM] | Emax (hGLP-1R; [4]) [%] | Emax (hGLP-1R; [5]) [%] | EC50 (hGLP-1R; [2]) [nM] | EC50 (hGLP-1R; [3]) [nM] | Emax (hGIPR; HEK293, read-out: hGIPR Emax, % ± SEM, cAMP, 37° C., 0.1% bovine casein, arithmetic mean) [%] | EC50 (hGIPR; [3]) [nM] |
| --- | --- | --- | --- | --- | --- | --- | --- | --- | --- | --- |
| CC[C@H](C)[C@H](NC(=O)[C@H](CCCN)NC(=O)[C@H](CC(=O)O)NC(=O)[C@H](CC(C)C)NC(=O)[C@](C)(CC(C)C)NC(=O)[C@@H](NC(=O)[C@H](CO)NC(=O)[C@H](Cc1ccncc1)NC(=O)[C@H](CC(=O)O)NC(=O)[C@H](CO)NC(=O)[C@@H](NC(=O)[C@](C)(Cc1ccccc1F)NC(=O)[C@@H](NC(=O)CNC(=O)[C@H](CCC(=O)O)NC(=O)C(C)(C)NC(=O)[C@@H](N)Cc1ccc(O)cc1)[C@@H](C)O)[C@@H](C)O)[C@@H](C)CC)C(=O)N[C@@H](C)C(=O)N[C@@H](CCC(N)=O)C(=O)NC(C)(C)C(=O)N[C@@H](CCC(=O)O)C(=O)N[C@@H](Cc1ccccc1)C(=O)N[C@H](C(=O)N[C@@H](CCCCNC(=O)COCCOCCNC(=O)COCCOCCNC(=O)CC[C@H](NC(=O)CCCCCCCCCOc1ccc(C(=O)O)cc1)C(=O)O)C(=O)N[C@@](C)(Cc1ccc(O)cc1)C(=O)N[C@@H](CC(C)C)C(=O)N[C@H](C(=O)N[C@@H](CCCCNC(=O)COCCOCCNC(=O)COCCOCCNC(=O)CC[C@H](NC(=O)CCCCCCCCCOc1ccc(C(=O)O)cc1)C(=O)O)C(=O)NCC(=O)NCC(=O)N1CCC[C@H]1C(=O)N[C@@H](CO)C(=O)N[C@@H](CO)C(=O)NCC(=O)N[C@@H](C)C(=O)N1CCC[C@H]1C(=O)N1CCC[C@H]1C(=O)N1CCC[C@H]1C(=O)N[C@@H](CO)C(N)=O)[C@@H](C)CC)[C@@H](C)CC [Example 274] | 93.5 | 0.0226 | > 9950 | > 9950 | 121 | 114 | 0.406 | – | – | – |
| CC[C@H](C)[C@H](NC(=O)[C@H](CCCN)NC(=O)[C@H](CC(=O)O)NC(=O)[C@H](CC(C)C)NC(=O)[C@](C)(CC(C)C)NC(=O)[C@@H](NC(=O)[C@H](CO)NC(=O)[C@H](Cc1ccncc1)NC(=O)[C@H](CC(=O)O)NC(=O)[C@H](CO)NC(=O)[C@@H](NC(=O)[C@](C)(Cc1ccccc1F)NC(=O)[C@@H](NC(=O)CNC(=O)[C@H](CCC(=O)O)NC(=O)C(C)(C)NC(=O)[C@@H](N)Cc1ccc(O)cc1)[C@@H](C)O)[C@@H](C)O)[C@@H](C)CC)C(=O)N[C@@H](C)C(=O)N[C@@H](CCC(N)=O)C(=O)NC(C)(C)C(=O)N[C@@H](CCCCNC(=O)COCCOCCNC(=O)COCCOCCNC(=O)CC[C@H](NC(=O)CCCCCCCCCOc1ccc(C(=O)O)cc1)C(=O)O)C(=O)N[C@@H](Cc1ccccc1)C(=O)N[C@H](C(=O)N[C@H](CCC(=O)O)C(=O)N[C@@](C)(Cc1ccc(O)cc1)C(=O)N[C@@H](CC(C)C)C(=O)N[C@H](C(=O)N[C@@H](CCCCNC(=O)COCCOCCNC(=O)COCCOCCNC(=O)CC[C@H](NC(=O)CCCCCCCCCOc1ccc(C(=O)O)cc1)C(=O)O)C(=O)NCC(=O)NCC(=O)N1CCC[C@H]1C(=O)N[C@@H](CO)C(=O)N[C@@H](CO)C(=O)NCC(=O)N[C@@H](C)C(=O)N1CCC[C@H]1C(=O)N1CCC[C@H]1C(=O)N1CCC[C@H]1C(=O)N[C@@H](CO)C(N)=O)[C@@H](C)CC)[C@@H](C)CC [Example 275] | – | 0.0152 | > 9950 | > 9950 | – | 110 | – | 33.5 | – | – |
| CC[C@H](C)[C@H](NC(=O)[C@H](CC(C)C)NC(=O)[C@](C)(Cc1ccc(O)cc1)NC(=O)[C@@H](CCC(=O)O)NC(=O)[C@@H](NC(=O)[C@H](Cc1ccccc1)NC(=O)[C@H](CCCCNC(=O)COCCOCCNC(=O)COCCOCCNC(=O)CC[C@H](NC(=O)CCCCCCCCCOc1ccc(C(=O)O)cc1)C(=O)O)NC(=O)C(C)(C)NC(=O)[C@H](CCC(N)=O)NC(=O)[C@H](C)NC(=O)[C@H](CCCCNC(=O)COCCOCCNC(=O)COCCOCCNC(=O)CC[C@H](NC(=O)CCCCCCCCCOc1ccc(C(=O)O)cc1)C(=O)O)NC(=O)[C@H](CCCN)NC(=O)[C@H](CC(=O)O)NC(=O)[C@H](CC(C)C)NC(=O)[C@](C)(CC(C)C)NC(=O)[C@@H](NC(=O)[C@H](CO)NC(=O)[C@H](Cc1ccc(OC)cc1)NC(=O)[C@H](CC(=O)O)NC(=O)[C@H](CO)NC(=O)[C@@H](NC(=O)[C@](C)(Cc1ccccc1F)NC(=O)[C@@H](NC(=O)CNC(=O)[C@H](CCC(=O)O)NC(=O)C(C)(C)NC(=O)[C@@H](N)Cc1ccc(O)cc1)[C@@H](C)O)[C@@H](C)O)[C@@H](C)CC)[C@@H](C)CC)C(=O)N[C@@H](CCC(=O)O)C(=O)NCC(=O)NCC(=O)N1CCC[C@H]1C(=O)N[C@@H](CO)C(=O)N[C@@H](CO)C(=O)NCC(=O)N[C@@H](C)C(=O)N1CCC[C@H]1C(=O)N1CCC[C@H]1C(=O)N1CCC[C@H]1C(=O)N[C@@H](CO)C(N)=O [Example 277] (H-Y[Aib]EGT[αMePhe(2-F)]TSDY(Me)SI[αMeL]LD[Orn]K([AEEA-AEEA-γGlu-Decanoyl(10-(4-HOOC-PhO))])AQ[Aib]K([AEEA-AEEA-γGlu-Decanoyl(10-(4-HOOC-PhO))])FI[dE][αMeY]LIEGGPSSGAPPPS-NH2) | – | 0.0176 | > 9950 | > 9950 | 93.1 | 97.1 | 0.225 | – | – | – |
| CC[C@H](C)[C@H](NC(=O)[C@H](CC(C)C)NC(=O)[C@](C)(Cc1ccc(O)cc1)NC(=O)[C@@H](CCC(=O)O)NC(=O)[C@@H](NC(=O)[C@H](Cc1ccccc1)NC(=O)[C@H](CCC(=O)O)NC(=O)C(C)(C)NC(=O)[C@H](CCC(N)=O)NC(=O)[C@H](C)NC(=O)[C@H](CCCCNC(=O)COCCOCCNC(=O)COCCOCCNC(=O)CC[C@H](NC(=O)CCCCCCCCCOc1ccc(C(=O)O)cc1)C(=O)O)NC(=O)[C@H](CCCN)NC(=O)[C@H](CC(=O)O)NC(=O)[C@H](CC(C)C)NC(=O)[C@](C)(CC(C)C)NC(=O)[C@@H](NC(=O)[C@H](CO)NC(=O)[C@H](Cc1ccc(OC)cc1)NC(=O)[C@H](CC(=O)O)NC(=O)[C@H](CO)NC(=O)[C@@H](NC(=O)[C@](C)(Cc1ccccc1F)NC(=O)[C@@H](NC(=O)CNC(=O)[C@H](CCC(=O)O)NC(=O)C(C)(C)NC(=O)[C@@H](N)Cc1ccc(O)cc1)[C@@H](C)O)[C@@H](C)O)[C@@H](C)CC)[C@@H](C)CC)C(=O)N[C@@H](CCCCNC(=O)COCCOCCNC(=O)COCCOCCNC(=O)CC[C@H](NC(=O)CCCCCCCCCOc1ccc(C(=O)O)cc1)C(=O)O)C(=O)NCC(=O)NCC(=O)N1CCC[C@H]1C(=O)N[C@@H](CO)C(=O)N[C@@H](CO)C(=O)NCC(=O)N[C@@H](C)C(=O)N1CCC[C@H]1C(=O)N1CCC[C@H]1C(=O)N1CCC[C@H]1C(=O)N[C@@H](CO)C(N)=O [Example 278] (H-Y[Aib]EGT[αMePhe(2-F)]TSDY(Me)SI[αMeL]LD[Orn]K([AEEA-AEEA-γGlu-Decanoyl(10-(4-HOOC-PhO))])AQ[Aib]EFI[dE][αMeY]LIK([AEEA-AEEA-γGlu-Decanoyl(10-(4-HOOC-PhO))])GGPSSGAPPPS-NH2) | 91.1 | – | > 9950 | > 9950 | 121 | 109 | – | 27 | 105 | 1.41 |
